The values below come from a melting point compilation (Tetko et al.; mined from patent text by program, amines drawn as free bases though some values may be those of a salt).

Structures are written as SMILES.

Consider `CCCn1c(C)c(C(C)=O)c(N)c1-c1ccccc1`, for which the melting point was 113 to 115 °C.
As to `CCCCNC(=O)Oc1ccc(Oc2ccccc2)cc1Br`, the melting point was in the range of 57 to 60 °C.
`CCOC(=O)C(Cl)=Cc1cc(NC(N)=O)ccc1Cl` returned a melting point of 209 to 210 °C.
The result for `CCCCOC(=O)OCN1C(=O)CN(CCN2CC(=O)N(COC(=O)OCCCC)C(=O)C2)CC1=O` reads 68 to 71 °C.
For `CCCc1nc(C(O)C(C)(C)C)c(C(=O)O)n1Cc1ccc(-c2ccccc2C(=O)OC(C)(C)C)cc1` (stereo unspecified), the melting point was found to be 207 °C.
For the compound `CCOC(=O)c1cc(O)c2c(n1)c(C)cc1c(O)cc(C(=O)OCC)nc12`, the melting point lay in the range of 198 to 200 °C.
The figure for `CCc1[nH]n(C2CCCC2)c2nc(-c3ccc(-n4ccnc4)cc3)nc(=O)c1-2` is over 300 °C; for `CCOn1nnc2ccc(C(C)n3ccnc3)cc21` (stereo unspecified) it is 81.1 °C.
As to `COc1ccc(CNc2c(C)c(C)c3c(c2C)C(c2ccc(C)cc2)C(C)(C)O3)cc1` (stereo unspecified), the melting point fell in the range of 97 to 98 °C.
The result for `COc1ccc2c(CCC(=O)O)nnc(-c3nccs3)c2c1` reads 228 to 229 °C; that for `COc1c(C)cc(C)cc1/C=C/C(=O)O`, 178 to 180 °C; that for `CCOC(=O)NN=Cc1cn(-c2ccccc2)nc1-c1ccc([N+](=O)[O-])o1`, 200 to 201 °C.
The result for `CN1C(=O)CC[C@]2(C)c3ccc(Sc4nc5ccccc5s4)cc3CC[C@@H]12` reads 188 to 189 °C; that for `CC(C)Cn1c(=O)n(C)c(=O)c2c(SCCCO)c(Cc3cccc(F)c3)sc21`, 99 to 100 °C; that for `N#Cc1nn(-c2c(Cl)cc(C(F)(F)F)cc2Cl)cc1C(=O)C(F)(F)C(F)(F)C(F)(F)F`, 102 to 103 °C.
The result for `CC(C)C(=O)Nc1nsnc1-c1c(Cl)cccc1Cl` reads 112 to 117 °C; that for `COc1cc(C)nc(NC(=O)NS(=O)(=O)c2cccc3c2OCCO3)n1`, 203 to 205 °C.
As to `Cc1noc(NS(=O)(=O)c2ccccc2-c2ccc(-c3ncco3)cc2CN(C)C(=O)CC(F)(F)F)c1C`, the melting point fell in the range of 85 to 100 °C.
The figure for `COc1c(Br)c(O)c(C=O)c(OC)c1Br` is 103 to 104 °C.
`CCC(=O)Nc1cc(C2=NCCO2)ccc1OCCCCCc1cc(C)no1` returned a melting point of 133 to 134 °C.
The compound `CC(=O)CCc1ccc2c(c1)C(=O)c1ccccc1-2` showed a melting point of 75 to 77 °C.
The result for `CO[Si](OC)(OC)O[Si](OC)(OC)O[Si](OC)(OC)OC` reads under -70 °C; that for `CN(C)CC1Cc2ccccc2N(S(=O)(=O)CCc2ccc(-c3ccccc3)cc2)C1` (stereo unspecified), 108 to 109 °C; that for `Cc1ccc(Cc2nc3cc(Cl)c(S(N)(=O)=O)cc3[nH]2)cc1`, 214 to 217 °C.
Take `O=C(NCCCCCCO)Oc1ccc(Oc2ccccc2)cc1`: the melting point fell in the range of 72 to 75 °C.
`O=c1c2ccccc2sc2c(Cl)cc(Cl)c(Oc3ccccc3)c12` showed a melting point of 197 to 198 °C.
As to `N=C(NO)c1ccc(Cl)nc1`, the melting point was 185 to 186 °C.
The figure for `O=C(O)c1ccc(C(=O)NOCCCc2ccccc2)cc1` is 171 to 173 °C; for `O=C(Nc1sc2c(c1C(=O)O)CCOC2)c1nn[nH]n1` it is over 250 °C.
`CCCc1nc2c(N)nc3cccnc3c2n1CC1(O)CCCC1` came in with a melting point of 184 to 186 °C.
The figure for `Cc1ccccc1COC(=O)NC(CO)Cc1ccc(O)cc1` (stereo unspecified) is 78 to 81 °C.
The figure for `CCCc1c(N)ccc2c(=O)cc(C(=O)OCC)oc12` is 84 to 87 °C; for `CCCCc1ncc(/C=C(\Cc2ccsc2)c2nnn[nH]2)n1Cc1ccccc1Cl` it is 142 to 144 °C; for `Cc1nc2sc(C)c(C)n2c(=O)c1CCN1CCC(C(=O)c2ccc(F)cc2)CC1` it is 159 °C.
`CC(C)(C)OC(=O)C(N)CCCCNC(=O)c1ccc(Cl)c(S(N)(=O)=O)c1` (stereo unspecified) returned a melting point of 158 to 160 °C.
The result for `C=CCc1ccc(C(NC(C)=O)C(=O)OC)cc1O` (stereo unspecified) reads 143 to 145 °C.
With `COc1ccc(S(=O)(=O)c2cccs2)c(Cl)c1Cl`, the melting point is 190 °C.
For `O=C(O)Cc1cc(C(=O)c2ccc3cc(-c4ccccc4)[nH]c3c2)sc1-c1ccccc1`, the melting point was 238 to 240 °C.
In the case of `COc1cc(OC)c(C2=NC(NC(=O)Nc3ccccc3C)C(=O)N(C)c3ccccc32)c(OC)c1` (stereo unspecified), the melting point came to 50 °C.
The figure for `COc1ccc(NC(=O)c2ccc(Cl)c(Cl)c2)cc1[N+](=O)[O-]` is 215 to 218 °C.
The result for `CCOC(=O)c1cccc(NC(=O)N[C@@H]2N=C(c3ccccc3)c3ccccc3N(C)C2=O)c1` reads 140 to 142 °C; that for `COCc1nc2cccc(C(=O)OC)c2n1Cc1ccc(-c2ccccc2-c2nnn[nH]2)cc1`, 191 to 194 °C; that for `CC(=O)N(C)c1cccc(-c2ccnc3c(Cl)cnn23)c1`, 163 to 165 °C.
The compound `O[C@@H]1CN(Cc2ccccc2)C[C@H]1Oc1ccc(OCc2ccccc2)cc1` (relative stereo) returned a melting point of 98 to 100 °C.
The figure for `COc1ncccc1C(=O)Nc1ccn2cc(-c3ccccc3)nc2n1` is 225 to 226 °C; for `CC1OC(C)C(C(=O)O)C1=O` (stereo unspecified) it is 55 to 57 °C; for `CC(C)(C)c1cc2c(c(C(C)(C)C)c1)OCC(/C=C/C=C/C=C/C(=O)O)=C2` it is 166 to 168 °C.
On to `CC(=O)c1ccc(N=C(C)c2ccccc2)cc1`, for which the melting point was found to be 205 °C.
The compound `CCN1CCc2ccc(Nc3ncc([N+](=O)[O-])c(Nc4ccccc4C(=O)NC)n3)cc2CC1` gave a melting point of 222 to 225 °C.
The result for `C#CC1N(C(=O)Oc2ccccc2)c2ccc(OCc3ccccc3[N+](=O)[O-])cc2C23OC12CCCC3=O` (stereo unspecified) reads 128 to 130 °C; that for `O=C(O)CS(=O)c1ccc2c(-c3ccccc3F)noc2c1` (stereo unspecified), 165 to 166 °C.
`COc1ccc(C(=O)Nc2ccccc2)cc1Nc1ccc(C2=NC(C)(C)CO2)cc1` had a melting point of 221 to 222 °C.
The figure for `CC(=O)N(C)c1cccc(-c2ccnc3c(C(=O)c4cccs4)cnn23)c1` is 190 to 192 °C; for `O=C(O)CC1CCCc2c1n(Cc1ccccc1Cl)c1c(F)cc(F)cc21` (stereo unspecified) it is 197 to 198 °C.
For `C=C(c1cc(F)ccc1OCc1ccc(Cl)cc1Cl)n1ccnc1`, the melting point fell in the range of 118 to 120 °C.
`Cc1cc(-c2[nH]c3c([N+](=O)[O-])cccc3c2C)cc(C)c1O` gave a melting point of 178 to 179 °C.
In turn, `O=C1C(Cl)=C(Nc2ccc(S(=O)(=O)Nc3ccccn3)cc2)C(=O)c2ccccc21` came in with a melting point of 273 to 275 °C.
The compound `COc1cc2c(cc1OC(C)C)-c1cc3c(n1CC2)C(=O)N(C(C)(C)C)CCOC3` gave a melting point of 125 to 127 °C.
On to `CS(=O)(=O)CCCCCn1c(C(F)(F)F)nc2c(N)nc3ccccc3c21`, for which the melting point lay in the range of 192 to 195 °C.
The figure for `COC(=O)Nc1c(C(=O)O)ccc(Cl)c1Cl` is 155 to 156 °C; for `COc1ccc(CS(=O)(=O)c2cc3ccc(O)cc3oc2=O)cc1[N+](=O)[O-]` it is 126 to 128 °C; for `CCOC(=O)C1=C(COCC2COC(C)(C)O2)NC(C)=C(C(=O)OC)C1c1cccc(Cl)c1Cl` (stereo unspecified) it is 135 to 137 °C.
The figure for `CCOC(=O)/C=C/c1nc(-c2ccccc2)oc1COc1ccc(OCc2nc(-c3ccccc3)oc2C)cc1` is 107 to 108 °C; for `O=C(Nc1nn(-c2ccccc2)cc1C(=O)O)OCc1cc2cc(-c3ccccc3)ccc2o1` it is 221 °C; for `COC(=O)c1[nH]c2ccccc2c1Oc1ccccc1N` it is 183 to 184 °C.
`COC(=O)[C@@H](Cc1ccccc1)Oc1c(Br)cc(-c2c3ccccc3c(Br)c3sc(C)c(C)c23)cc1C1CCCC1` yielded a melting point of 167 to 168 °C.
On to `C#CC[C@@H](N)c1nc2cc(Cl)ccc2c(=O)n1Nc1ccccc1`, for which the melting point was 175 to 180 °C.
On to `CC(CN(C)C)Oc1ccc(-c2nn(CC(=O)O)c3ncccc23)cc1` (stereo unspecified), for which the melting point was in the range of 210 to 211 °C.
The figure for `CC(=O)OC1CSC(Oc2cncc(Cl)c2)C(OC(C)=O)C1OC(C)=O` (stereo unspecified) is 160 °C; for `CCCc1nc2c(N)nc3cc(Oc4ccccc4C#N)ccc3c2n1CC(C)C` it is 230 to 232 °C.
The figure for `Cn1c(COc2cccc(C(=O)O)c2)nc2ccc(Oc3cccc(OC(F)(F)F)c3)cc21` is 221 to 227 °C; for `C#CCOC1(Nc2cccc(OCC3CO3)c2)N=CC(Br)=CN1` (stereo unspecified) it is 173 °C; for `C1=C(/C=C/c2ccccc2)CCN(Cc2n[nH]c3c2CCc2ccccc2-3)C1` it is 205 to 210 °C.
`N#Cc1nn(-c2c(Cl)cc(C(F)(F)F)cc2Cl)c(N)c1-c1ccccc1Cl` registered a melting point of 192 to 193 °C.
The figure for `CCCCCCCNC(=O)Nc1ccc(-n2nc(C(F)(F)F)cc2C(F)(F)F)cc1` is 129 to 130 °C; for `CCSc1c(C=NOCc2ccccc2)c(=O)n(C)c(=O)n1C` it is 76 °C.
The result for `CNC(=O)c1cccc(F)c1Nc1nc(Nc2ccc3c(c2)CCCC(=O)N3CCOC)ncc1Cl` reads 146 to 147 °C; that for `CCCCCCS(=O)(=O)c1nn2c(=O)cc(C)nc2s1`, 111 to 115 °C; that for `CC1(C)C(=O)Nc2cc3[nH]c(N)nc3cc21`, 300 to 305 °C.
The figure for `CCCCc1ncc(/C=C(\Cc2cccs2)C(=O)O)n1Cc1ccc(C(=O)O)cn1` is 212 to 213 °C; for `Cc1cccc(NC(=O)c2cc(Cl)cc(C)n2)c1` it is 95 °C; for `CC(=O)Nc1ccc2oc([N+](=O)[O-])c(-c3ccccc3)c2c1` it is 204 to 207 °C.
With `CCN(CC)C(=O)c1c(C(=O)c2cc3cnccc3n2S(=O)(=O)c2ccccc2)ccnc1OC`, the melting point is 150 °C.
Consider `N#Cc1ccc(NC2CCN(Cc3cc(F)cc(C(F)(F)F)c3)CC2)nn1`, for which the melting point stood at 151 °C.
Compound `COc1cccc2c1-c1ccc3c(c1C(O)O2)C(C)=CC(C)(C)N3` (stereo unspecified) displayed a melting point of 184 to 185 °C.
Turning to `CCOC(=O)COc1ccc(Cn2c(-c3ccc(OC)cc3)c(C)c3cc(OCc4ccccc4)ccc32)cc1`, the melting point lay in the range of 90 to 96 °C.

As usually defined, the melting point is the temperature, or range, at which the solid turns liquid.
